Experimental data from patent US20260285888A1, “HETEROCYCLIC COMPOUND AND USE THEREOF” (OTSUKA PHARMACEUTICAL CO., LTD., priority 2023, published 2026).

Tests used:
[1] = in vitro; type: cell-based, human; settings: human, differentiated hl-60 cells, 300 μmol/L, about 24 hours, PMA-differentiated HL-60 cells, LDH; no-treatment 0%, cell lysis buffer 100%; read-out: cytotoxicity (%) Evaluation compound results
Summary of the method: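 Cytotoxicity (%) from supernatant LDH activity after ~24 h treatment at 300 μmol/L final, normalised to no-treatment (0%) and lysis buffer (100%). Cells were PMA-differentiated (10 nM, ~72 h) HL-60 in 2% FBS medium; triplicate means.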

[2] = Study for confirmation of conversion to brexpiprazole in a buffer (stability of the evaluation compounds); type: physicochemical; settings: in buffer, average of duplicate; for Concentration of brexpiprazole formed: 60-minute reaction sample; for Concentration of evaluation compound decreased: decrease in 60-minute vs 0-minute reaction sample
Summary of the method: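 Compounds (final 1 μmol/L, from 100 μmol/L working solutions) incubated in buffer at 37° C. for 0 or 60 min, in duplicate, after 3 min pre-incubation of the reaction solution. Reactions stopped with acetonitrile/isopropanol (4:1) containing internal standards; compound and formed brexpiprazole quantified against 0.01–1 μmol/L calibration samples.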

| SMILES | cytotoxicity at 24 h, 300 µM [1] | Concentration of brexpiprazole formed [2] | Concentration of evaluation compound decreased [2] |
| --- | --- | --- | --- |
| CCOC(=O)CC(C)(C)CC(=O)OCOP(=O)([O-])OC[N+]1(CCCCOc2ccc3ccc(=O)[nH]c3c2)CCN(c2cccc3sccc23)CC1 [EX 32, (4-(benzo[b]thiophen-4-yl)-1-(4-((2-oxo-1,2-dihydroquinolin-7-yl)oxy)butyl)piperazin-1-ium-1-yl)methyl (((5-ethoxy-3,3-dimethyl-5-oxopentanoyl)oxy)methyl) phosphate] | 5% | 0 nM | 10 nM |
| CCOC(=O)OCOP(=O)([O-])OC[N+]1(CCCCOc2ccc3ccc(=O)[nH]c3c2)CCN(c2cccc3sccc23)CC1 [EX 129, (4-(benzo[b]thiophen-4-yl)-1-(4-(((2-oxo-1,2-dihydroquinolin-7-yl)oxy)butyl)piperazin-1-ium-1-yl)methyl (((ethoxycarbonyl)oxy)methyl) phosphate] | -4% | 0 nM | 90 nM |
| COCCn1nc(C(=O)OCOP(=O)([O-])OC[N+]2(CCCCOc3ccc4ccc(=O)[nH]c4c3)CCN(c3cccc4sccc34)CC2)c2ccccc21 [EX 82, (4-(benzo[b]thiophen-4-yl)-1-(4-((2-oxo-1.2-dihydroquinolin-7-yl)oxy)butyl)piperazin-1-ium-1-yl)methyl (((1-(2-methoxyethyl)-1H-indazole-3-carbonyl)oxy)methyl) phosphate] | -2% | 0 nM | 20 nM |
| CC(C)COC(=O)[C@@H](C)OP(=O)([O-])OC[N+]1(CCCCOc2ccc3ccc(=O)[nH]c3c2)CCN(c2cccc3sccc23)CC1 [EX 107, (R)-(4-(benzo[b]thiophen-4-yl)-1-(4-((2-oxo-1,2-dihydroquinolin-7-yl)oxy)butyl)piperazin-1-ium-1-yl)methyl (1-isobutoxy-1-oxopropan-2-yl) phosphate] | -6% | 0 nM | 70 nM |
| O=C(O)CCCC(=O)OCOP(=O)([O-])OC[N+]1(CCCCOc2ccc3ccc(=O)[nH]c3c2)CCN(c2cccc3sccc23)CC1 [EX 70, (4-(benzo[b]thiophen-4-yl)-1-(4-((2-oxo-1.2-dihydroquinolin-7-yl)oxy)butyl)piperazin-1-ium-1-yl)methyl (((4-carboxybutanoyl)oxy)methyl) phosphate] | -7% | 0 nM | 0 nM |
| O=C(CCO)OCOP(=O)([O-])OC[N+]1(CCCCOc2ccc3ccc(=O)[nH]c3c2)CCN(c2cccc3sccc23)CC1 [EX 125, (4-(benzo[b]thiophen-4-yl)-1-(4-((2-oxo-1,2-dihydroquinolin-7-yl)oxy)butyl)piperazin-1-ium-1-yl)methyl (((3-hydroxypropanoyl)oxy)methyl) phosphate] | -7% | 0 nM | 130 nM |
| O=c1ccc2ccc(OCCCC[N+]3(COP(=O)([O-])O)CCN(c4cccc5sccc45)CC3)cc2[nH]1 [EX 2, (4-(benzo[b]thiophen-4-yl)-1-((4-((2-oxo-1,2-dihydroquinolin-7-yl)oxy)butyl)piperazin-1-ium-1-yl)methyl hydrogen phosphate] | -7% | 0 nM | 0 nM |
| CCCC(C)(C)C(=O)OCOP(=O)([O-])OC[N+]1(CCCCOc2ccc3ccc(=O)[nH]c3c2)CCN(c2cccc3sccc23)CC1 [EX 123, (4-(benzo[b]thiophen-4-yl)-1-(4-((2-oxo-1.2-dihydroquinolin-7-yl)oxy)butyl)piperazin-1-ium-1-yl)methyl (((2,2-dimethylpentanoyl)oxy)methyl) phosphate] | -8% | 0 nM | -110 nM |
| O=c1ccc2ccc(OCCCC[N+]3(COP(=O)([O-])OCCCCCO)CCN(c4cccc5sccc45)CC3)cc2[nH]1 [EX 92] | -7% | 0 nM | 110 nM |
| COCCCCOC(=O)OCOP(=O)([O-])OC[N+]1(CCCCOc2ccc3ccc(=O)[nH]c3c2)CCN(c2cccc3sccc23)CC1 [EX 36, (4-(benzo[b]thiophen-4-yl)-1-(4-((2-oxo-1,2-dihydroquinolin-7-yl)oxy)butyl)piperazin-1-ium-1-yl)methyl ((((4-methoxybutoxy)carbonyl)oxy)methyl) phosphate] | -10% | 0 nM | -40 nM |
| COCCCOP(=O)([O-])OC[N+]1(CCCCOc2ccc3ccc(=O)[nH]c3c2)CCN(c2cccc3sccc23)CC1 [EX 49, (4-(benzo[b]thiophen-4-yl)-1-(4-((2-oxo-1,2-dihydroquinolin-7-yl)oxy)butyl)piperazin-1-ium-1-yl)methyl (3-methoxypropyl) phosphate] | -7% | 0 nM | 50 nM |
| Cc1cccc(C(=O)OCCCCCCOP(=O)([O-])OC[N+]2(CCCCOc3ccc4ccc(=O)[nH]c4c3)CCN(c3cccc4sccc34)CC2)n1 [EX 59, (4-(benzo[b]thiophen-4-yl)-1-(4-((2-oxo-1,2-dihydroquinolin-7-yl)oxy)butyl)piperazin-1-ium-1-yl)methyl (6-((6-methylpicolinoyl)oxy)hexyl) phosphate] | 1% | 0 nM | 50 nM |
| COC(=O)[C@H](COP(=O)([O-])OC[N+]1(CCCCOc2ccc3ccc(=O)[nH]c3c2)CCN(c2cccc3sccc23)CC1)NC(=O)OC(C)(C)C [EX 83, (S)-(4-(benzo[b]thiophen-4-yl)-1-(4-((2-oxo-1,2-dihydroquinolin-7-yl)oxy)butyl)piperazin-1-ium-1-yl)methyl (2-(tert-butoxycarbonyl)amino)-3-methoxy-3-oxopropyl) phosphate] | -5% | 0 nM | 70 nM |
| CCC(CC)COC(=O)[C@@H](C)OP(=O)([O-])OC[N+]1(CCCCOc2ccc3ccc(=O)[nH]c3c2)CCN(c2cccc3sccc23)CC1 [EX 108, (R)-(4-(benzo[b]thiophen-4-yl)-1-(4-((2-oxo-1,2-dihydroquinolin-7-yl)oxy)butyl)piperazin-1-ium-1-yl)methyl (1-(2-ethylbutoxy)-1-oxopropan-2-yl) phosphate] | -7% | 0 nM | 80 nM |
| O=c1ccc2ccc(OCCCC[N+]3(COP(=O)([O-])OCCCCCCl)CCN(c4cccc5sccc45)CC3)cc2[nH]1 [EX 113, (4-(benzo[b]thiophen-4-yl)-1-(4-((2-oxo-1,2-dihydroquinolin-7-yl)oxy)butyl)piperazin-1-ium-1-yl)methyl (5-chloropentyl) phosphate] | 10% | 0 nM | 160 nM |
| CCOC(=O)C1CCN(CCOP(=O)([O-])OC[N+]2(CCCCOc3ccc4ccc(=O)[nH]c4c3)CCN(c3cccc4sccc34)CC2)CC1 [EX 147, (4-(benzo[b]thiophen-4-yl)-1-(4-((2-oxo-1,2-dihydroquinolin-7-yl)oxy)butyl)piperazin-1-ium-1-yl)methyl (2-(4-(ethoxycarbonyl)piperidin-1-yl)ethyl) phosphate] | -6% | 0 nM | 70 nM |
| O=C(OCOP(=O)([O-])OC[N+]1(CCCCOc2ccc3ccc(=O)[nH]c3c2)CCN(c2cccc3sccc23)CC1)OCC1CCOCC1 [EX 142, (4-(benzo[b]thiophen-4-yl)-1-(4-((2-oxo-1,2-dihydroquinolin-7-yl)oxy)butyl)piperazin-1-ium-1-yl)methyl (((((tetrahydro-2H-pyran-4-yl)methoxy)carbonyl)oxy)methyl) phosphate] | 8% | 0 nM | -70 nM |
| O=C(OCCCCCCOP(=O)([O-])OC[N+]1(CCCCOc2ccc3ccc(=O)[nH]c3c2)CCN(c2cccc3sccc23)CC1)c1ccccc1 [EX 57, (4-(benzo[b]thiophen-4-yl)-1-(4-((2-oxo-1,2-dihydroquinolin-7-yl)oxy)butyl)piperazin-1-ium-1-yl)methyl (6-(benzoyloxy)hexyl) phosphate] | 4% | 0 nM | 90 nM |
